Data from patent US20240294572A1, “Antimicrobial Peptides” (priority 2021, published 2024).
Converted amounts (≈) assume the structure as drawn. Residues, ends and D or L forms follow the SMILES beside them. *: point of attachment. Octanoyl = CCCCCCCC(=O)*

Tests used:
[1] = tested on: human red blood cells (hRBCs); format: cell-based; settings: red cells of human, 1 h
Procedure: Hemolytic assays of peptides were performed as described (Lakshmaiah, et al. (2020) Proc. Natl. Acad. Sci., 117:19446-19454). Briefly, human red blood cells (hRBCs) were obtained from UNMC Blood Bank. The cells were washed 3× with isotonic saline (0.9% NaCl) and diluted to 2% (v/v). Peptides at various concentrations were added to the 2% blood cells and incubated at 37° C. for 1 hour. Post-incubation, the plates were spun at 2000 rpm for 10 minutes; aliquots of the supernatant were carefully transferred to a fresh 96-well microplate. The amount of cells lysed is proportional to the hemoglobin released and was measured at 545 nm using a ChroMate® microplate reader (Awareness Technology, FL). The percent lysis was calculated by assuming 100% release when human blood cells were treated with 1% Triton™ X-100, and 0% release when incubated with PBS. The peptide concentration that caused 50% lysis of hRBCs is defined as HC50. The cell selectivity index (CSI) was calculated as the ratio between HC50 and the MIC of the corresponding peptide against MRSA.

HaCaT cells = format: cell-based, human
Procedure: Peptides were assessed for potential cytotoxicity using HaCaT cells (Addexbio Technologies, CA). Briefly, cells were seeded at a density of 1×10^4 per well in a tissue culture 96-well plate. DMEM was supplemented with 10% fetal bovine serum (FBS) and incubated at 37° C. in a 5% CO2 atmosphere for 24 hours. Culture medium was aspirated and replaced with fresh serum free media. Cells were exposed to different concentrations of peptides for 1 hour at 37° C. in a 5% CO2 atmosphere. Post-incubation, the cells were washed and incubated with 100 μL of DMEM media containing 20 μL of MTS reagent for 2 hours at 37° C. Absorbance was read at 492 nm using a ChroMate® microplate reader (Awareness Technology, FL).

[2] = tested on: Klebsiella pneumonia ATCC 13883; assay: Antibacterial broth microdilution MIC; format: cell-based
Procedure: (§1) The antibacterial activity of peptides was evaluated using a standard broth microdilution protocol (Clinical Laboratories Standards Institute (CLSI): M07-A10. Methods for Dilution Antimicrobial Susceptibility Tests for Bacteria that grow aerobically; Approved Standard, Tenth Edition, 2015) with minor modifications as described (Mishra, et al. (2019) Proc. Natl. Acad. Sci., 116:13517-13522). In brief, peptides (10 μL per well) with 2-fold dilutions were made in 96-well polystyrene microplates. Subsequently, the logarithmic phase bacterial cultures (i.e., optical density at 600 nm ˜0.5) were diluted to 0.001 OD and aliquoted to 90 μL per well. The plates were incubated overnight at 37°° C. Bacterial controls were treated with water, and the wells containing only the TSB media were used as blank. Positive controls included the parent peptide LL-37 as well as KR12. Post incubation, the plates were read at 630 nm using ChroMate® 4300 Microplate Reader (Awareness Technology, FL).

S. aureus Mu50 = format: cell-based
Procedure: as §1

S. aureus USA200 = format: cell-based
Procedure: as §1

S. aureus Newman = format: cell-based
Procedure: as §1

[3] = tested on: clinical strains of S. aureus, including USA200, USA400, Newman, and Mu50; format: cell-based
Procedure: as §1

S. aureus USA400 = format: cell-based
Procedure: as §1

S. aureus USA300 LAC [4] = format: cell-based
Procedure: as §1
To study the influence of medium conditions on the antimicrobial activity of peptides against S. aureus USA300, different pH, sodium chloride (NaCl), human sera were included into the antibacterial assays. Control experiments in TSB without any additions (pH 7.4) were set up in the same manner. In addition, antimicrobial activities of human LL-37, KR12, and C10-KR8d were compared in 10%, 50%, and 100% TSB as well as in TSB and MHB using E. coli ATCC 25922 and S. aureus USA300 LAC.

S. aureus USA300 LAC [5] = assay: Bacterial resistance development, multiple passage experiment; format: cell-based; settings: 14 passages/days at sub-MIC
Procedure: This experiment was performed similar to the MIC determination with a few modifications as described (Mishra, et al. (2019) Proc. Natl. Acad. Sci., 116:13517-13522). In short, an exponential phase S. aureus USA300 culture (i.e., optical density at 600 nm≈0.5) was diluted and partitioned into a 96-well polystyrene microplate with ˜10^5 bacteria per well (90 μL aliquots). After treatment with 10 μL of peptide or nafcillin solutions at various concentrations, microplates were incubated at 37° C. overnight and read on a ChroMate® 4300 Microplate Reader at 630 nm (Awareness Technology, FL). Of the wells with sub-MIC levels of the peptides that retained growth, approximately half of the control wells were again reinoculated in fresh TSB with sub-MIC concertation of peptides or antibiotics to attain exponential phase for MIC determination. Up to 15 serial passages of the bacteria cultures were conducted. The increase in the fold change (MIC on given passage/MIC recorded in first day of passage) was used to determine the degree of drug resistance.

Row | HC50 [1] [µM] | MIC (μM) KP [2] [µM] | MIC against clinical strains of S. aureus [3] [µM] | MIC (μM) SA (S. aureus USA300 LAC [4]; USA300) [µM] | Minimal inhibitory concentration (MIC), pH = 6.8 (S. aureus USA300 LAC [4]; USA300, pH 6.8) [μM] | Structure (SMILES) | relative toxicity to HaCaT cells (HaCaT cells) | Minimal inhibitory concentration, Mu50 (S. aureus Mu50) [µM] | Minimal inhibitory concentration, USA200 (S. aureus USA200) [µM] | Minimal inhibitory concentration, Newman (S. aureus Newman) [µM] | Minimal inhibitory concentration, USA400 (S. aureus USA400) [µM] | MIC increase in multiple passage experiment (S. aureus USA300 LAC [5])
1 | 250 | 25 (≈ 37.9 µg/mL) | 1.6 to 6.2 | 3.1 to 6.2 | 12.5 | CCCCCCCC(=O)N[C@@H](CCCCN)C(=O)N[C@@H](CCCNC(=N)N)C(=O)N[C@H](C(=O)N[C@@H](Cc1c[nH]c2ccccc12)C(=O)N[C@@H](CCC(N)=O)C(=O)N[C@@H](CCCNC(=N)N)C(=O)N[C@H](C(=O)N[C@@H](CCCCN)C(=O)N[C@@H](CC(=O)O)C(=O)N[C@@H](Cc1ccccc1)C(N)=O)[C@@H](C)CC)[C@@H](C)CC [Peptide C8-KR10] (Octanoyl-KRIWQRIKDF-NH2) | slightly less toxic than C8-KR10d | 6.2 (≈ 9.39 µg/mL) | 6.2 (≈ 9.39 µg/mL) | 6.2 (≈ 9.39 µg/mL) | 3.1 (≈ 4.7 µg/mL) | 
2 |  |  |  |  |  | CCOc1ccc2ccccc2c1C(=O)N[C@@H]1C(=O)N2[C@@H]1SC(C)(C)[C@@H]2C(=O)O [nafcillin, reference compound] |  |  |  |  |  | over 30 fold
